PubChem BioAssay AID248 (DTP/NCI, 2004)
Inconclusive results and toxic doses are left out. Cut-off read from the data, not from the text of the source: active = T/C of 150% or more; inactive = T/C below 125%.

System: L1210 leukemia ip in BDF1 mice, survival T/C
Test: NCI In Vivo Anticancer Drug Screen. Data for tumor model L1210 Leukemia (intraperitoneal) in B6D2F1 (BDF1) mice
Settings: endpoint: mean survival time, higher = longer survival
In short: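 Tumor cells were implanted, animals were treated, and survival was followed. The result divides the treated measurement by the vehicle-control measurement.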

[1] = dose: 100.0 mg/kg/injection, schedule: Q01DX001 (ip), vehicle: carboxymethylcellulose (CMC)
[2] = dose: 100.0 mg/kg/injection, schedule: Q04DX003 (ip), vehicle: Klucel (hydroxypropylcellulose) (HPC)
[3] = dose: 200.0 mg/kg/injection, schedule: Q01DX001 (ip), vehicle: carboxymethylcellulose (CMC)
[4] = dose: 200.0 mg/kg/injection, schedule: Q04DX003 (ip), vehicle: Klucel (hydroxypropylcellulose) (HPC)
[5] = dose: 400.0 mg/kg/injection, schedule: Q01DX001 (ip), vehicle: carboxymethylcellulose (CMC)
[6] = dose: 100.0 mg/kg/injection, schedule: Q01DX001 (ip), vehicle: saline with Tween-80
[7] = dose: 400.0 mg/kg/injection, schedule: Q04DX003 (ip), vehicle: Klucel (hydroxypropylcellulose) (HPC)
[8] = dose: 12.5 mg/kg/injection, schedule: Q01DX009 (ip), vehicle: saline
[9] = dose: 25.0 mg/kg/injection, schedule: Q01DX009 (ip), vehicle: saline
[10] = dose: 50.0 mg/kg/injection, schedule: Q01DX009 (ip), vehicle: saline
[11] = dose: 100.0 mg/kg/injection, schedule: Q04DX003 (ip), vehicle: saline with Tween-80
[12] = dose: 100.0 mg/kg/injection, schedule: Q01DX001 (ip), vehicle: saline
[13] = dose: 200.0 mg/kg/injection, schedule: Q01DX001 (ip), vehicle: saline
[14] = dose: 400.0 mg/kg/injection, schedule: Q01DX001 (ip), vehicle: saline
[15] = dose: 100.0 mg/kg/injection, schedule: Q04DX003 (ip), vehicle: saline
[16] = dose: 200.0 mg/kg/injection, schedule: Q04DX003 (ip), vehicle: saline

Measured: T/C

O=C(O)C1(Br)c2ccccc2-c2ccccc21
inactive: dose: 50.0 mg/kg/injection, schedule: Q01DX001 (ip), vehicle: carboxymethylcellulose (CMC) 100 % of control | dose: 50.0 mg/kg/injection, schedule: Q04DX003 (ip), vehicle: Klucel (hydroxypropylcellulose) (HPC) 100 % of control | [1] 100 % of control | [2] 94 % of control | [3] 96 % of control | [4] 96 % of control | [5] 105 % of control

Cn1c(-c2ccccc2)nc2c(N)ncnc21
inactive: dose: 25.0 mg/kg/injection, schedule: Q01DX001 (ip), vehicle: saline with Tween-80 95 % of control | dose: 50.0 mg/kg/injection, schedule: Q01DX001 (ip), vehicle: saline with Tween-80 90 % of control | [6] 90 % of control

O=NN(c1ccccc1)c1ccc2ccccc2c1
inactive: [2] 105 % of control | [4] 110 % of control | [7] 110 % of control

O=C(c1ccc(Cl)cc1Cl)C(Cl)Cl
inactive: dose: 30.0 mg/kg/injection, schedule: Q01DX015 (ip), vehicle: saline 98 % of control | dose: 60.0 mg/kg/injection, schedule: Q01DX015 (ip), vehicle: saline 91 % of control | dose: 120.0 mg/kg/injection, schedule: Q01DX015 (ip), vehicle: saline 98 % of control

COc1cc(C(=O)NN(C)C)cc(OC)c1OC
inactive: [1] 97 % of control | [3] 101 % of control | [5] 101 % of control

CCCCOCCN
inactive: [8] 104 % of control | [9] 101 % of control | [10] 106 % of control

CCCCNC(=O)Nc1c(C)cccc1C
inactive: dose: 100.0 mg/kg/injection, schedule: Q01DX009 (ip), vehicle: gum acacia 99 % of control | dose: 100.0 mg/kg/injection, schedule: Q04DX003 (ip), vehicle: gum acacia 92 % of control | dose: 200.0 mg/kg/injection, schedule: Q01DX009 (ip), vehicle: gum acacia 87 % of control | dose: 200.0 mg/kg/injection, schedule: Q04DX003 (ip), vehicle: gum acacia 91 % of control | dose: 400.0 mg/kg/injection, schedule: Q01DX009 (ip), vehicle: gum acacia 87 % of control | dose: 400.0 mg/kg/injection, schedule: Q04DX003 (ip), vehicle: gum acacia 92 % of control

Cc1cc(C)c(O)c(CN(C)C)c1
inactive: [11] 101 % of control | dose: 200.0 mg/kg/injection, schedule: Q04DX003 (ip), vehicle: saline with Tween-80 98 % of control

COc1ccc2nc3cc(Cl)ccc3c(Cl)c2c1
inactive: dose: 50.0 mg/kg/injection, schedule: Q04DX003 (ip), vehicle: carboxymethylcellulose (CMC) 87 % of control | [1] 97 % of control | dose: 100.0 mg/kg/injection, schedule: Q04DX003 (ip), vehicle: carboxymethylcellulose (CMC) 92 % of control | [3] 90 % of control | dose: 200.0 mg/kg/injection, schedule: Q04DX003 (ip), vehicle: carboxymethylcellulose (CMC) 91 % of control | [5] 100 % of control

O=C(CSSCC(=O)Nc1ccccc1O)Nc1ccccc1O
inactive: dose: 100.0 mg/kg/injection, schedule: Q01DX001 (ip), vehicle: other 88 % of control | dose: 200.0 mg/kg/injection, schedule: Q01DX001 (ip), vehicle: other 93 % of control | dose: 400.0 mg/kg/injection, schedule: Q01DX001 (ip), vehicle: other 89 % of control

CC(=O)Oc1ccc(OC(C)=O)c2c1C1C=CC2C1
inactive: [12] 103 % of control | [13] 103 % of control | [14] 101 % of control

CC(=O)/C=C(\C)OB(F)F
inactive: dose: 50.0 mg/kg/injection, schedule: Q01DX001 (ip), vehicle: saline 98 % of control | [12] 95 % of control

NC(=O)NNC(=O)C(Cl)(Cl)Cl
inactive: dose: 25.0 mg/kg/injection, schedule: Q04DX002 (ip), vehicle: saline 108 % of control | dose: 50.0 mg/kg/injection, schedule: Q04DX002 (ip), vehicle: saline 99 % of control | dose: 100.0 mg/kg/injection, schedule: Q04DX002 (ip), vehicle: saline 101 % of control

Cc1ccc2ccc(/C=N/Nc3ccc4cccc(O)c4n3)c(O)c2n1
inactive: [1] 88 % of control | [5] 88 % of control

C[N+]1(C)C2CC(OC(=O)C(CO)c3ccccc3)CC1C1OC12 (centres undefined)
inactive: dose: 75.0 mg/kg/injection, schedule: Q01DX001 (ip), vehicle: other 106 % of control

Nc1ccc(Sc2ccc(N)cc2)cc1
inactive: dose: 12.5 mg/kg/injection, schedule: Q04DX002 (ip), vehicle: Klucel (hydroxypropylcellulose) (HPC) 106 % of control | dose: 25.0 mg/kg/injection, schedule: Q04DX002 (ip), vehicle: Klucel (hydroxypropylcellulose) (HPC) 116 % of control | dose: 50.0 mg/kg/injection, schedule: Q04DX002 (ip), vehicle: Klucel (hydroxypropylcellulose) (HPC) 106 % of control | dose: 100.0 mg/kg/injection, schedule: Q04DX002 (ip), vehicle: Klucel (hydroxypropylcellulose) (HPC) 103 % of control

CCOC(=O)CNC(=O)Nc1ccc(C(=O)O)cc1
inactive: dose: 100.0 mg/kg/injection, schedule: Q01DX009 (ip), vehicle: saline with Tween-80 93 % of control | dose: 200.0 mg/kg/injection, schedule: Q01DX009 (ip), vehicle: saline with Tween-80 100 % of control

C#CC(O)(/C=C\Cl)CC (centres undefined)
inactive: [8] 102 % of control | [9] 93 % of control | dose: 25.0 mg/kg/injection, schedule: Q04DX003 (ip), vehicle: saline 101 % of control | [10] 94 % of control | dose: 50.0 mg/kg/injection, schedule: Q04DX003 (ip), vehicle: saline 95 % of control | dose: 100.0 mg/kg/injection, schedule: Q01DX009 (ip), vehicle: saline 86 % of control | [15] 97 % of control | [16] 106 % of control

CS/C(N)=N/N=C(\N)SC
inactive: dose: 25.0 mg/kg/injection, schedule: Q01DX009 (ip), vehicle: saline with Tween-80 101 % of control | dose: 25.0 mg/kg/injection, schedule: Q04DX003 (ip), vehicle: saline with Tween-80 91 % of control | dose: 50.0 mg/kg/injection, schedule: Q01DX009 (ip), vehicle: saline with Tween-80 95 % of control | dose: 50.0 mg/kg/injection, schedule: Q04DX003 (ip), vehicle: saline with Tween-80 90 % of control | [6] 102 % of control | [11] 111 % of control

Nc1nc2c(c(=O)[nH]1)N=C(CCNc1ccc(C(=O)O)cc1)CN2
inactive: [12] 105 % of control | [13] 109 % of control | [14] 109 % of control

Cc1ccc(S(=O)(=O)N(CC(=O)O)c2cccc(Cl)c2)cc1
inactive: [2] 91 % of control | [4] 96 % of control | [7] 100 % of control

Cn1cnc2nn[nH]c(=O)c21
inactive: dose: 100.0 mg/kg/injection, schedule: Q01DX009 (ip), vehicle: Klucel (hydroxypropylcellulose) (HPC) 94 % of control | [15] 92 % of control | dose: 200.0 mg/kg/injection, schedule: Q01DX009 (ip), vehicle: Klucel (hydroxypropylcellulose) (HPC) 96 % of control | [16] 92 % of control | dose: 400.0 mg/kg/injection, schedule: Q01DX009 (ip), vehicle: Klucel (hydroxypropylcellulose) (HPC) 90 % of control | dose: 400.0 mg/kg/injection, schedule: Q04DX003 (ip), vehicle: saline 95 % of control

NC(=S)NN=C1CSSC1
inactive: dose: 1.56 mg/kg/injection, schedule: Q01DX009 (ip), vehicle: water 99 % of control | dose: 3.12 mg/kg/injection, schedule: Q01DX009 (ip), vehicle: water 96 % of control | dose: 6.25 mg/kg/injection, schedule: Q01DX009 (ip), vehicle: water 99 % of control | dose: 12.5 mg/kg/injection, schedule: Q01DX009 (ip), vehicle: water 103 % of control | dose: 12.5 mg/kg/injection, schedule: Q04DX003 (ip), vehicle: water 95 % of control | dose: 25.0 mg/kg/injection, schedule: Q01DX009 (ip), vehicle: water 103 % of control

Cc1ccc(S(=O)(=O)S/C(=N\c2ccccn2)Nc2ccccn2)cc1
inactive: [1] 98 % of control | [3] 93 % of control | [5] 91 % of control

CC(C)Oc1ccc2ccccc2c1
inactive: dose: 12.5 mg/kg/injection, schedule: Q04DX003 (ip), vehicle: acetone 94 % of control | dose: 25.0 mg/kg/injection, schedule: Q04DX003 (ip), vehicle: acetone 93 % of control | dose: 50.0 mg/kg/injection, schedule: Q04DX003 (ip), vehicle: acetone 93 % of control
